Results: patent US10159249B2 (BAYER CROPSCIENCE AKTIENGESELLSCHAFT, priority 2013, dated 2018)
pIC50: −log10 of the molar value. Where two headings read alike, the source gives them in different places.

Tests used:
[1] = tested on: transgenic soybean T1 plants expressing PfHPPD-Evo33; type: in vivo; settings: for number of events, herbicide tolerance class 0 (41%-100% damaged leaf area) / number of events, herbicide tolerance class 1 (16%-40% damaged leaf area) / number of events, herbicide tolerance class 2 (6%-15% damaged leaf area) / number of events, herbicide tolerance class 3 (0%-5% damaged leaf area): soybean PfHPPD-Evo33, scored after 21 days
[2] = tested on: wild type soybean plants (Merlin and Thorne); type: in vivo; settings: 21 days after spraying
Euphorbia heterophylla = assay: Field trial, weed efficacy, post applied; type: in vivo; settings: application at 5 leaf stage, assessment 14 days after application
PfHPPD336W (SEQ ID No 4) = PfHPPD336W (SEQ ID No 4) (Pseudomonas sp., UniProt P80064, G335W); assay: biochemical; design: species or system Pseudomonas fluorescens
wild type soybean Thorne = type: in vivo; settings: scored after 21 days
[3] = tested on: transgenic soybean T1 plants expressing PfHPPD-G336W; type: in vivo; settings: for number of events, herbicide tolerance class 0 (41%-100% damaged leaf area) / number of events, herbicide tolerance class 1 (16%-40% damaged leaf area) / number of events, herbicide tolerance class 2 (6%-15% damaged leaf area) / number of events, herbicide tolerance class 3 (0%-5% damaged leaf area): scored after 21 days
[4] = tested on: Non-transformed maize plants; assay: Greenhouse trial, maize plants, leaf damage; type: in vivo; settings: 25 g AI/ha
Method: Regenerated T0 events from tissue culture were transplanted into two inch square pots with synthetic soil (Fafard® Mix) and controlled-released fertilizer (Haifa Multicote™; polymer-coated controlled-release fertilizer, NPK Pro 18-6-12+Micronutrients) and cultivated in the greenhouse (GH) under supplementary high pressure sodium light for 12 days at a maximum of 30° C. during the day and a minimum of 22° C. at night. Fully recovered plants were transferred into five inch square pots filled with synthetic soil and control released fertilizer under the same environmental conditions. […] All herbicide treatments were conducted in a DeVries Tracker Sprayer system with standard application protocols, which are well known in the art. As a spray control T0 events have been sprayed with the adjunvant mixture lacking the herbicide.

PfHPPD (SEQ ID No 46) = target: T1, PfHPPD (SEQ ID No 46) (Pseudomonas sp., UniProt P80064); assay: HPPD activity in presence of inhibitor, HGD assay; type: biochemical, Pseudomonas fluorescens
T1 construct: made in house; host or cells: E. coli K-12 BL21, vector pSE420(RI)NX-PfHPPD
Method: With the HGD assay HPPD activity was measured at room temperature by adding appropriate amounts of HPPD to a solution of 200 mM Tris-HCl pH 7.6, 10 mM ascorbate, 20 μM FeSO4, 650 units of catalase, 8 μg HGA dioxygenase (HGA: homogentisate) and 600 μM HPP in a total volume of 1 ml. Initial reaction rates were determined from the increase in absorbance at 318 nm due to the formation of maleylacetoacetate (ε318=11,900 M-1 cm-1).
In cases, the symbol “>” is used this means that the value was far higher than the one indicated but could not be precisely calculated within in the range of concentration of inhibitor tested.
In the 1st column of Table 1, the HPPD employed in the assay is named and in the 2nd column of Table 1, the corresponding SEQ ID No of present invention is disclosed.

[5] = soybean Thorne (wt), 6.25 g AI/ha

PfHPPD336W (SEQ ID No 4), sequence (P80064 1-354 with tags or gaps with the stated changes): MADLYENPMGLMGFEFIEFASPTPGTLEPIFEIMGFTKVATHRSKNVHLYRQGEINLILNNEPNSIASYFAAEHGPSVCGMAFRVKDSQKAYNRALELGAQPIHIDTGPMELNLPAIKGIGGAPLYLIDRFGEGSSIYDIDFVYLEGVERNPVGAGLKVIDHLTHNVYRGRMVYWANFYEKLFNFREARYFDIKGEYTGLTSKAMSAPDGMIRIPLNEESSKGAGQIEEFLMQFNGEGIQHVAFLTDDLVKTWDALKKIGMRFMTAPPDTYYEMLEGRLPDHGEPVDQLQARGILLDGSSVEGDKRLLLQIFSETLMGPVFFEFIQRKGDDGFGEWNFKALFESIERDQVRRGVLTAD
T1 sequence (P80064 other isoform, or with tags, fused parts or gaps with the stated changes): as the sequence (P80064 1-354 with tags or gaps with the stated changes) above, with W336G counted along it

CSc1c(C(F)(F)F)ccc(C(=O)Nc2nnnn2C)c1Cl
herbicide tolerance ([1]; most soybean T1 plants expressing PfHPPD-Evo33, 25 g AI/ha): high tolerance
number of events, herbicide tolerance class 0 (41%-100% damaged leaf area) ([1]; 6.25 g AI/ha): 1
number of events, herbicide tolerance class 1 (16%-40% damaged leaf area) ([1]; 6.25 g AI/ha): 0
number of events, herbicide tolerance class 2 (6%-15% damaged leaf area) ([1]; 6.25 g AI/ha): 0
number of events, herbicide tolerance class 3 (0%-5% damaged leaf area) ([1]; 6.25 g AI/ha): 11
number of events, herbicide tolerance class 0 (41%-100% damaged leaf area) ([1]; 25 g AI/ha): 1
number of events, herbicide tolerance class 1 (16%-40% damaged leaf area) ([1]; 25 g AI/ha): 0
number of events, herbicide tolerance class 2 (6%-15% damaged leaf area) ([1]; 25 g AI/ha): 2
number of events, herbicide tolerance class 3 (0%-5% damaged leaf area) ([1]; 25 g AI/ha): 13
number of events, herbicide tolerance class 0 (41%-100% damaged leaf area) ([1]; 50 g AI/ha): 0
number of events, herbicide tolerance class 1 (16%-40% damaged leaf area) ([1]; 50 g AI/ha): 4
number of events, herbicide tolerance class 2 (6%-15% damaged leaf area) ([1]; 50 g AI/ha): 0
number of events, herbicide tolerance class 3 (0%-5% damaged leaf area) ([1]; 50 g AI/ha): 0
number of events, herbicide tolerance class 0 (41%-100% damaged leaf area) ([1]; 75 g AI/ha): 0
number of events, herbicide tolerance class 1 (16%-40% damaged leaf area) ([1]; 75 g AI/ha): 4
number of events, herbicide tolerance class 2 (6%-15% damaged leaf area) ([1]; 75 g AI/ha): 0
number of events, herbicide tolerance class 3 (0%-5% damaged leaf area) ([1]; 75 g AI/ha): 0
bleaching of the total leaf area ([2]; 6.25 g of AI/ha): 45%-50%
damaged leaf area ([2]; 25 g of AI/ha): 90-100%
Efficacy (%) Euphorbia heterophylla (Euphorbia heterophylla; (A) 25 g ai/ha): 15%
Efficacy (%) Euphorbia heterophylla (Euphorbia heterophylla; (A) 75 g ai/ha): 35%
pIC50 (PfHPPD336W (SEQ ID No 4)): 6.70
% inhibition at 0.2 μM (PfHPPD336W (SEQ ID No 4); 0.2 μM inhibitor, HGD assay): 76%
number of events, herbicide tolerance class 0 (41%-100% damaged leaf area) (wild type soybean Thorne; [5]): 4
number of events, herbicide tolerance class 1 (16%-40% damaged leaf area) (wild type soybean Thorne; [5]): 0
number of events, herbicide tolerance class 2 (6%-15% damaged leaf area) (wild type soybean Thorne; [5]): 0
number of events, herbicide tolerance class 3 (0%-5% damaged leaf area) (wild type soybean Thorne; [5]): 0
number of events, herbicide tolerance class 0 (41%-100% damaged leaf area) (wild type soybean Thorne; soybean Thorne, 25 g AI/ha): 4
number of events, herbicide tolerance class 1 (16%-40% damaged leaf area) (wild type soybean Thorne; soybean Thorne, 25 g AI/ha): 0
number of events, herbicide tolerance class 2 (6%-15% damaged leaf area) (wild type soybean Thorne; soybean Thorne, 25 g AI/ha): 0
number of events, herbicide tolerance class 3 (0%-5% damaged leaf area) (wild type soybean Thorne; soybean Thorne, 25 g AI/ha): 0
number of events, herbicide tolerance class 0 (41%-100% damaged leaf area) ([3]; 6.25 g AI/ha): 0
number of events, herbicide tolerance class 1 (16%-40% damaged leaf area) ([3]; 6.25 g AI/ha): 0
number of events, herbicide tolerance class 2 (6%-15% damaged leaf area) ([3]; 6.25 g AI/ha): 0
number of events, herbicide tolerance class 3 (0%-5% damaged leaf area) ([3]; 6.25 g AI/ha): 12
number of events, herbicide tolerance class 0 (41%-100% damaged leaf area) ([3]; 25 g AI/ha): 0
number of events, herbicide tolerance class 1 (16%-40% damaged leaf area) ([3]; 25 g AI/ha): 0
number of events, herbicide tolerance class 2 (6%-15% damaged leaf area) ([3]; 25 g AI/ha): 0
number of events, herbicide tolerance class 3 (0%-5% damaged leaf area) ([3]; 25 g AI/ha): 16
number of events, herbicide tolerance class 0 (41%-100% damaged leaf area) ([3]; 50 g AI/ha): 0
number of events, herbicide tolerance class 1 (16%-40% damaged leaf area) ([3]; 50 g AI/ha): 4
number of events, herbicide tolerance class 2 (6%-15% damaged leaf area) ([3]; 50 g AI/ha): 0
number of events, herbicide tolerance class 3 (0%-5% damaged leaf area) ([3]; 50 g AI/ha): 0
number of events, herbicide tolerance class 0 (41%-100% damaged leaf area) ([3]; 75 g AI/ha): 0
number of events, herbicide tolerance class 1 (16%-40% damaged leaf area) ([3]; 75 g AI/ha): 3
number of events, herbicide tolerance class 2 (6%-15% damaged leaf area) ([3]; 75 g AI/ha): 1
number of events, herbicide tolerance class 3 (0%-5% damaged leaf area) ([3]; 75 g AI/ha): 0
herbicide tolerance ([3]; in vivo): high tolerance
leaf damage [4]: 100%
inhibition at 0.2 µM (PfHPPD (SEQ ID No 46); 0.2 μM inhibitor): 76%
IC50 (PfHPPD (SEQ ID No 46); room temperature, 600 μM HPP, molar concentration, read-out: pI50 (converted)): 100 nM
